Where “and” joins values, the source holds several entries; their conditions need not be identical. Equal entries are not always repeated.
Tests used:
[1] = Hepatic microsomal stability, HLM; type: in vitro ADME, human; conditions: In vitro human liver microsomal stability
[2] = In vitro human hepatocyte stability; type: in vitro ADME
Text: (§1) Supplement media-1.zip/Hepatocyte_Stability.csv, table | column: clint; t_half

[3] = In vitro mouse hepatocyte stability; type: in vitro ADME
Text: as §1

Protein binding = type: in vitro ADME
Text: Supplement media-1.zip/Protein_Binding.csv, table | column: fu; perc_bound; perc_free; perc_recovered

H1 (h) = target: T1, H1 (h) (Homo sapiens, UniProt P35367); test: In vitro CEREP profiling, H1 (h) (antagonist radioligand); type: binding; conditions: test compound concentration 10 uM
T1 construct: purchased Eurofins Cerep (SafetyScreen44), recognised from the panel format
Text: (§2) Supplement media-1.zip/Safety_Panel_Profile.csv, table | column: perc_inhibition

MAO-A = target: T2, MAO-A (Rattus norvegicus, UniProt P21396); test: In vitro CEREP profiling, MAO-A (antagonist radioligand); type: binding; conditions: test compound concentration 10 uM
T2 construct: purchased Eurofins Cerep (SafetyScreen44), recognised from the panel format
T2 sequence (P21396 1-526): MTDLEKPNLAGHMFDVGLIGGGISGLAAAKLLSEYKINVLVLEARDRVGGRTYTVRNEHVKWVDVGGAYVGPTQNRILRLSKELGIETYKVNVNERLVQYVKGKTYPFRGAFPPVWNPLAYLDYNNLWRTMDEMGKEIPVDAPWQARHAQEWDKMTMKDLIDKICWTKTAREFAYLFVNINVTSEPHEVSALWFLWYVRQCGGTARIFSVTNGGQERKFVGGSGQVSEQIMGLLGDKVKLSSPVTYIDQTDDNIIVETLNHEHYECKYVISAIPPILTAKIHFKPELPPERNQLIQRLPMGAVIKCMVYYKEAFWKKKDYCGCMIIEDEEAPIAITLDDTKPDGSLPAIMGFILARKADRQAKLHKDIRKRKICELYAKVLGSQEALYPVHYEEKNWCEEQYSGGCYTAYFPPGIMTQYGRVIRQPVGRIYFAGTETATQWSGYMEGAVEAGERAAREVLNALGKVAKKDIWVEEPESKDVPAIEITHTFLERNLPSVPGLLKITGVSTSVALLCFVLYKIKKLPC
Text: as §2

PDE4D2 (h) = target: T3, PDE4D2 (h) (Homo sapiens, UniProt Q08499); test: In vitro CEREP profiling, PDE4D2 (h); type: biochemical; conditions: test compound concentration 10 uM; Enzyme and Cell-based assays
T3 construct: purchased Eurofins Cerep (SafetyScreen44), recognised from the panel format
Text: as §2

AR(h) = test: In vitro CEREP profiling, AR(h) (agonist radioligand); type: binding, human; conditions: test compound concentration 10 uM
Text: as §2

V1a (h) = target: T4, V1a (h) (Homo sapiens, UniProt P37288); test: In vitro CEREP profiling, V1a (h) (agonist radioligand); type: binding; conditions: test compound concentration 10 uM
T4 construct: purchased Eurofins Cerep (SafetyScreen44), recognised from the panel format
Text: as §2

[4] = test system: Ca2+ channel (L, dihydropyridine site); test: In vitro CEREP profiling, Ca2+ channel (L, dihydropyridine site) (antagonist radioligand); type: binding; conditions: test compound concentration 10 uM
Text: as §2

mu (MOP) (h) = target: T5, mu (MOP) (h) (Homo sapiens, UniProt P35372); test: In vitro CEREP profiling, mu (MOP) (h) (agonist radioligand); type: binding; conditions: test compound concentration 10 uM
T5 construct: purchased Eurofins Cerep (SafetyScreen44), recognised from the panel format
Text: as §2

KV channel = test: In vitro CEREP profiling, KV channel (antagonist radioligand); type: binding; conditions: test compound concentration 10 uM
Text: as §2

ETA (h) = target: T6, ETA (h) (Homo sapiens, UniProt P25101); test: In vitro CEREP profiling, ETA (h) (agonist radioligand); type: binding; conditions: test compound 10 uM
T6 construct: purchased Eurofins Cerep (SafetyScreen44), recognised from the panel format
T6 sequence (P25101 21-427): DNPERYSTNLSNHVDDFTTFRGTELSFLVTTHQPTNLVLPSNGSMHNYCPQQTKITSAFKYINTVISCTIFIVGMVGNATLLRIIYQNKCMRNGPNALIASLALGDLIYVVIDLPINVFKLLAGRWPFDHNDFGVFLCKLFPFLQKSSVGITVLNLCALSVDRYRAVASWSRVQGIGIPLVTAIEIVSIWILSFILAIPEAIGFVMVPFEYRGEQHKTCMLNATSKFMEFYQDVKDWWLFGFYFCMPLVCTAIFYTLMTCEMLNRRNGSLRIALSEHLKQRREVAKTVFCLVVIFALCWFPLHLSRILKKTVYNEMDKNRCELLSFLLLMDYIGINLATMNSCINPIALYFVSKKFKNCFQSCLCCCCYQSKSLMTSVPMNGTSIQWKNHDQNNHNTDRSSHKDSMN
Text: as §2

[5] = target: T7, norepinephrine transporter (h) (Homo sapiens, UniProt P23975); test: In vitro CEREP profiling, norepinephrine transporter (h) (antagonist radioligand); type: binding; conditions: test compound concentration 10 uM
T7 construct: purchased Eurofins Cerep (SafetyScreen44), recognised from the panel format
Text: as §2

NMDA = test: In vitro CEREP profiling, NMDA (antagonist radioligand); type: binding; conditions: test compound 10 uM
Text: as §2

[6] = In vitro dog liver microsomal stability; type: in vitro ADME
Text: Supplement media-1.zip/Hepatic_Microsomal_Stability.csv, table | column: clint; t_half

MERS-CoV = test: microbe, parasite or virus in culture; type: cell-based; conditions: Vero E6/TMPRSS2 MERS-CoV antiviral effect with P-gp inhibitor
[7] = In vitro dog plasma protein binding
[8] = In vitro fetal calf serum protein binding
[9] = In vitro human plasma protein binding
[10] = In vitro mouse plasma protein binding
[11] = In vitro rat plasma protein binding

T5 sequence (P35372 whole entry): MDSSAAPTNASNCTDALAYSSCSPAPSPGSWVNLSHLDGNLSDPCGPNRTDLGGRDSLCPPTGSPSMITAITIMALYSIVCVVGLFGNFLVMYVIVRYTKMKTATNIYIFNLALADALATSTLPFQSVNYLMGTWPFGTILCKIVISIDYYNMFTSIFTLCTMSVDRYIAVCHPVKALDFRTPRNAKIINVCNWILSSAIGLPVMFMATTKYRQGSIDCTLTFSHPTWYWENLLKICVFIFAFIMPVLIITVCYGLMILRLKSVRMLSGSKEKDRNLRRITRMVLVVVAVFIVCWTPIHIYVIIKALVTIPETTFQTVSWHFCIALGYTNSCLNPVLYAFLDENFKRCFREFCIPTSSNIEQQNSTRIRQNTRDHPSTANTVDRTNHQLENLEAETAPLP
T7 sequence (P23975 whole entry): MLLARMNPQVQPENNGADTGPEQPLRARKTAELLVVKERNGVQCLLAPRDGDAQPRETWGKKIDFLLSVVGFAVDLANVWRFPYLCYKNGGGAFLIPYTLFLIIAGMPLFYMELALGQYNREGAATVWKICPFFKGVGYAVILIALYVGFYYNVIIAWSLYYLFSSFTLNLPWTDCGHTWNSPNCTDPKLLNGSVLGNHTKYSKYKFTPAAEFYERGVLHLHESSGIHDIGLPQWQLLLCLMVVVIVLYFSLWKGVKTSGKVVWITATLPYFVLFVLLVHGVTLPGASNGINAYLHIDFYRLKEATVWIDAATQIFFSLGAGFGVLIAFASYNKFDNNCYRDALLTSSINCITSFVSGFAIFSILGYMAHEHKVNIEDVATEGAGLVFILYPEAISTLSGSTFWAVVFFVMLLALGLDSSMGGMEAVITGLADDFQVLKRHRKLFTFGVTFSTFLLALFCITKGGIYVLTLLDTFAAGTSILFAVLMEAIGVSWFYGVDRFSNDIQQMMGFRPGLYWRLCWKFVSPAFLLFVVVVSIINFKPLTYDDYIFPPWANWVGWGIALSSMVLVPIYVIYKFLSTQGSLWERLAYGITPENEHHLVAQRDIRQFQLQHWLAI
T4 sequence (P37288 whole entry): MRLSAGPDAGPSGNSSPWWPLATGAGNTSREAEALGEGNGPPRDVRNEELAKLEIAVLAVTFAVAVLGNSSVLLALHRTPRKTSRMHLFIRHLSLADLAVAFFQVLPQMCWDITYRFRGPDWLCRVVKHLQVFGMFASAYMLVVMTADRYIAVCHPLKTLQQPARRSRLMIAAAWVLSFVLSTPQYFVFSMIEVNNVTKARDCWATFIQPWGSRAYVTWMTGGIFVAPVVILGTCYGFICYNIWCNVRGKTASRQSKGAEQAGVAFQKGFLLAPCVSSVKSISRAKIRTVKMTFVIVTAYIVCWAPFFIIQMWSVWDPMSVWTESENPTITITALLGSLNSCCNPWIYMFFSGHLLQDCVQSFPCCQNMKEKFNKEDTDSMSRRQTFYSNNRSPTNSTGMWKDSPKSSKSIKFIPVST
T1 sequence (P35367 whole entry): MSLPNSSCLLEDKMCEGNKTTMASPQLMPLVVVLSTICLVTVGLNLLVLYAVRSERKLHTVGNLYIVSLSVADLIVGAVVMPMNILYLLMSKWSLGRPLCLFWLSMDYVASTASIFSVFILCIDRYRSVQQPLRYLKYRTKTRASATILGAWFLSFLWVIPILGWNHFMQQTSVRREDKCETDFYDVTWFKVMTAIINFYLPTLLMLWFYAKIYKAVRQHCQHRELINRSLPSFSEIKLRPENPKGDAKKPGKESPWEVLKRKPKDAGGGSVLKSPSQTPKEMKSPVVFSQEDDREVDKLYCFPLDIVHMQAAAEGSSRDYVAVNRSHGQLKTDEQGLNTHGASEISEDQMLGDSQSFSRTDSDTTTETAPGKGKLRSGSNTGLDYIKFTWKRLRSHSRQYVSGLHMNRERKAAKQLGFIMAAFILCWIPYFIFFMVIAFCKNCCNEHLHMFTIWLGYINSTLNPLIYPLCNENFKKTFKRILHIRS
T3 sequence (Q08499 303-809): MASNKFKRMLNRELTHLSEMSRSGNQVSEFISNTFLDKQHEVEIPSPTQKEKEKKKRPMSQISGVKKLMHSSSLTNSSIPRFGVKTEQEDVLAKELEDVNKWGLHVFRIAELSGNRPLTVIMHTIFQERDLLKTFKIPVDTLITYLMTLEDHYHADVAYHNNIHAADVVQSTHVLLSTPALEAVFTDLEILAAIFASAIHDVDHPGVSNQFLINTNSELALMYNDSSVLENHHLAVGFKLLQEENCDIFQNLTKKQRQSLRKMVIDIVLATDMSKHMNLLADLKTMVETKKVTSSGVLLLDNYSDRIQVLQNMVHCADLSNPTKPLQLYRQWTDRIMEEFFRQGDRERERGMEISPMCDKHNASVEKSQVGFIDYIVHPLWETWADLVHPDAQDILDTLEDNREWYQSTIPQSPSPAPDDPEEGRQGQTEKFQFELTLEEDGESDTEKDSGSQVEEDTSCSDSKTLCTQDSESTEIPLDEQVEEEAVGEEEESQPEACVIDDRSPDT

C[C@H](C(=O)O)[C@@H](NC(=O)c1ncnc2[nH]ccc12)c1ccc(Br)cc1 [ASAP-0014722]
clint [1]: 3.0 µL/min/mg | perc_remaining [1]: 92.211% | t_half [1]: 573.861 min | perc_remaining_no_cofactor ([1]; no cofactor): 101.611% | clint [2]: < 3.0 uL/min/1E6 cells | t_half [2]: > 231.0 min | clint [3]: 4.35 uL/min/1E6 cells | t_half [3]: 159.0 min | fu (Protein binding; [7]): 0.039 | perc_bound (Protein binding; [7]): 96.1% | perc_free (Protein binding; [7]): 3.94% | perc_recovered (Protein binding; [7]): 103.6% | fu (Protein binding; [8]): 0.043 | perc_bound (Protein binding; [8]): 95.7% | perc_free (Protein binding; [8]): 4.3% | perc_recovered (Protein binding; [8]): 106.3% | fu (Protein binding; [9]): 0.026 | perc_bound (Protein binding; [9]): 97.4% | perc_free (Protein binding; [9]): 2.6% | perc_recovered (Protein binding; [9]): 99.4% | fu (Protein binding; [10]): 0.111 | perc_bound (Protein binding; [10]): 88.9% | perc_free (Protein binding; [10]): 11.1% | perc_recovered (Protein binding; [10]): 94.29% | fu (Protein binding; [11]): 0.044 | perc_bound (Protein binding; [11]): 95.6% | perc_free (Protein binding; [11]): 4.41% | perc_recovered (Protein binding; [11]): 93.34% | perc_inhibition (% inhibition of the binding of a ligand specific for each target) (H1 (h)): -8% | perc_inhibition (% inhibition of the binding of a ligand specific for each target) (MAO-A): -1% | perc_inhibition: % inhibition of control enzyme activity, PDE4D2 (h) (PDE4D2 (h)): 30% | perc_inhibition (% inhibition of the binding of a ligand specific for each target) (AR(h)): 12% | perc_inhibition (% inhibition of the binding of a ligand specific for each target) (V1a (h)): 62% | perc_inhibition (% inhibition of the binding of a ligand specific for each target) [4]: -12% | perc_inhibition (% inhibition of the binding of a ligand specific for each target) (mu (MOP) (h)): -10% | perc_inhibition (% inhibition of the binding of a ligand specific for each target) (KV channel): 0% | perc_inhibition (% inhibition of the binding of a ligand specific for each target) (ETA (h)): -2% | perc_inhibition (% inhibition of the binding of a ligand specific for each target) [5]: -6% | perc_inhibition (% inhibition of the binding of a ligand specific for each target) (NMDA): 4% | clint [6]: < 5.0 µL/min/mg | t_half [6]: > 139.0 min | perc_max_measured (MERS-CoV; maximum measured response of dose series): 106.305% and 132.117% | perc_min_measured (MERS-CoV; minimum measured response of dose series): 63.318% and 92.538% | EC50 (MERS-CoV; read-out: ec50): > 5 µM | EC90 (MERS-CoV; read-out: ec90): > 5 µM

— publication doi:10.1101/2024.08.19.608619, “Discovery of potent SARS-CoV-2 nsp3 macrodomain inhibitors uncovers lack of translation to cellular antiviral response” (bioRxiv, 2024)
